Results: patent US6649654B1, “Methods for identifying and using IKK inhibitors” (The Regents of the University of California, priority 1999, dated 2003)

What was measured:
IKK [1] = biological target: T1, IKK (Homo sapiens, UniProt O14920+O15111); test: Endogenous IKK activity (kinase assay) in treated, stimulated HeLa cells; format: cell-based; parameters: Endogenous IKK was immunoprecipitated from TNFα-stimulated HeLa cells; endogenous in cells; host or cells: HeLa; conditions: HeLa cells, 50 μM (LTB4 1 μM, 15dPGJ2 5 μM) 2 hours, TNFα 10 minutes
T1 sequence (O15111 whole entry, one chain of several): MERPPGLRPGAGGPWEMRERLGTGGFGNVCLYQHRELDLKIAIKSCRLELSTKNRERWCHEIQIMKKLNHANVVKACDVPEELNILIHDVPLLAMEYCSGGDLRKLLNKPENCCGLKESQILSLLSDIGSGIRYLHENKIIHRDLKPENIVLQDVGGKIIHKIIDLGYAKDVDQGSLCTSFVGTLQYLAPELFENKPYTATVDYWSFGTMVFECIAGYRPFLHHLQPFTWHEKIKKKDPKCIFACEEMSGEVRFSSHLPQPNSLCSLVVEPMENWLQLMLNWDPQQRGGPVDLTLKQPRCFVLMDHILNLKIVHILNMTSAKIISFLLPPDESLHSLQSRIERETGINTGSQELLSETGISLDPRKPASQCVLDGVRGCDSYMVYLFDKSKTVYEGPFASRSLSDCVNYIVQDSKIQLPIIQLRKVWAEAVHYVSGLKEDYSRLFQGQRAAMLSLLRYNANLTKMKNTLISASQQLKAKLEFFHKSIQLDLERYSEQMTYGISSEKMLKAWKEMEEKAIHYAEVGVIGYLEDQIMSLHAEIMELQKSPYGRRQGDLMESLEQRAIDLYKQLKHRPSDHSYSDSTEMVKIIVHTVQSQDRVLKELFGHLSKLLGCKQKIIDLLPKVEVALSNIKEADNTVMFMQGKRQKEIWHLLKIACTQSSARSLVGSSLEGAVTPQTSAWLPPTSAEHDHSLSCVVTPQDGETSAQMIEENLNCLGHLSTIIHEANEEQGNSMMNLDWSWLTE
T1 sequence (Q9Y6K9 whole entry partner, one chain of several): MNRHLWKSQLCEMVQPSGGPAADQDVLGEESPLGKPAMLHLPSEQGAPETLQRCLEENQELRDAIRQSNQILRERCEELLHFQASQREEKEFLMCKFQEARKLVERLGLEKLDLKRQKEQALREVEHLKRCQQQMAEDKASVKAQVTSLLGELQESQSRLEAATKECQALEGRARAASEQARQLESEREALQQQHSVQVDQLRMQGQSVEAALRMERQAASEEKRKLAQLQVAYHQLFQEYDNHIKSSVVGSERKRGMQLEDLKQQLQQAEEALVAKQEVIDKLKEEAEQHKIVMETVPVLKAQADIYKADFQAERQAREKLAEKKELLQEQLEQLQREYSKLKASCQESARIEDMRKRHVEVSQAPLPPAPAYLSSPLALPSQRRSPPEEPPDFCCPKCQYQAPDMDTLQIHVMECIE
Description: (§1) Cells used in the experiments described herein were cultured in either RPMI 1640 (Jurkat cells) or DMEM (HeLa and COS cells), supplemented with 10% FBS and antibiotics. Cells were stimulated with either 25 ng/ml TPA, 20 ng/ml recombinant TNFα, or 10 ng/ml interleukin 1β (Sigma). PGA1, 15dPGJ2, T×B2, LTB4, AA and other PGs (Cayman) dissolved in ethanol were used as well, as known in the art (See e.g., Rossi et al., 94:746-750 [1997]). Controls received equal amounts of ethanol. Transfections were performed using Lipofectamine Plus (GIBCO) for HeLa and COS cells and DEAE-dextran (Sigma) for Jurkat cells. Xpress-tagged NIK, Xpress-tagged MEKK1, HA-tagged IKKα, and HA-tagged IKKβ were also used (See e.g., Zandi et al., Science 281:1360-1363 [1998]; and Delhase et al., Science 284:309-313 [1999]). COX2 and cPLA2 expression vectors were obtained from Dr. L. Feng (See also, Hirose et al., J. Am. Soc. Nephrol., 9:408-416 [1998]). PGD synthase was cloned from HT29 colon carcinoma cell line cDNA by PCR and subcloned into a pCDNA3 vector. Cells were lysed in buffer B (50 mM Tris-HCl, pH 7.5, 400 mM NaCl, 1 mM EDTA, 1 mM EGTA, 1% Triton, 0.5% NP-40, 10% glycerol, and supplemented with 20 mM β-glycerophosphate, 10 mM PNPP, […] 1 mM PMSF, 20 μg/ml aprotinin, 2.5 μg/ml leupeptin, 8.3 μg/ml bestatin, 1.7 μg/ml pepstatin, and 2 mM DTT).
(§2) Cell lysates were incubated with anti-IKKα (Pharmingen), anti-HA (12CA5; Pharmingen), anti-JNK1 (333.8; Pharmingen), or anti-p38 (New England Biolabs) for 2 hours. Then, 15 μl protein A-Sepharose (Sigma) were added and the mixture was allowed to incubate for 1 hour. After extensive washing, kinase assays were performed as known in the art (See e.g., DiDonato et al., Nature 388:548-554 [1997]). Endogenous IKK, HA-tagged IKKα, endogenous JNK1, and p38 activities were determined with GST-1κBα(1-54), GST-c-Jun(1-79), and GST-ATF2 as substrates.
(§3) In this Example, experiments to determined the effects of arachidonic acid and its metabolites on IKK activity in vivo and in vitro are described. HeLa cells were treated with 50 μM AA, PGA1, PGB2, PGD2, PGE1, PGE2, PGF1α, or thromboxane B2 (T×B2), 1 μM LTB4, or 5 μM 15dPGJ2, for 2 hours in RPMI containing 10% FCS, and stimulated with TNFα for 10 minutes. Cell lysates were then assayed for endogenous IKK activity and recovery. In this FIGURE, “control” indicates unstimulated cells, and “-” indicates treatment with diluent alone. In addition, IKK was immunoprecipitated from TNFα-stimulated HeLA cells and incubated in vitro with 100 μM AA, PGA1, PGB2, PGD2, PGE1, PGE2, PGF1α, or T×B2, 2 μM LTB4 or 10 μM 15dPGJ2, followed by kinase assay and immunoblot analysis. In this FIGURE, “control” indicates to unstimulated cells, and “-”indicates 1% ethanol.

IKK [2] = biological target: T1, IKK; test: In vitro kinase assay of IKK immunoprecipitated from TNFα-stimulated HeLa cells; format: biochemical; parameters: Endogenous IKK was immunoprecipitated from TNFα-stimulated HeLa cells; endogenous in cells; host or cells: HeLa; conditions: immunoprecipitated IKK, 100 μM (LTB4 2 μM, 15dPGJ2 10 μM)
Description: as §2
Endogenous IKK was immunoprecipitated from TNFα-stimulated HeLa cells and the kinase activity determined in the presence of different concentrations of PGA1 (the results of which are shown in FIG. 2B) or 15dPGJ2 (the results of which are shown in FIG. 2C).
as §3
Many protein kinase inhibitors compete with binding of ATP, but preincubation in the presence of increasing concentrations of ATP had no effect on inhibition of IKKβ by 15dPGJ2, as indicated in FIG. 6A. […] The pellets were rinsed and kinase activity was measured.

IKKβ = biological target: T2, IKKβ (Homo sapiens, UniProt O14920); parameters: FLAG; made in house; host or cells: Sf9 (baculovirus); conditions: high concentrations; Yin et al.; cited from earlier work
T2 sequence (O14920 1-756): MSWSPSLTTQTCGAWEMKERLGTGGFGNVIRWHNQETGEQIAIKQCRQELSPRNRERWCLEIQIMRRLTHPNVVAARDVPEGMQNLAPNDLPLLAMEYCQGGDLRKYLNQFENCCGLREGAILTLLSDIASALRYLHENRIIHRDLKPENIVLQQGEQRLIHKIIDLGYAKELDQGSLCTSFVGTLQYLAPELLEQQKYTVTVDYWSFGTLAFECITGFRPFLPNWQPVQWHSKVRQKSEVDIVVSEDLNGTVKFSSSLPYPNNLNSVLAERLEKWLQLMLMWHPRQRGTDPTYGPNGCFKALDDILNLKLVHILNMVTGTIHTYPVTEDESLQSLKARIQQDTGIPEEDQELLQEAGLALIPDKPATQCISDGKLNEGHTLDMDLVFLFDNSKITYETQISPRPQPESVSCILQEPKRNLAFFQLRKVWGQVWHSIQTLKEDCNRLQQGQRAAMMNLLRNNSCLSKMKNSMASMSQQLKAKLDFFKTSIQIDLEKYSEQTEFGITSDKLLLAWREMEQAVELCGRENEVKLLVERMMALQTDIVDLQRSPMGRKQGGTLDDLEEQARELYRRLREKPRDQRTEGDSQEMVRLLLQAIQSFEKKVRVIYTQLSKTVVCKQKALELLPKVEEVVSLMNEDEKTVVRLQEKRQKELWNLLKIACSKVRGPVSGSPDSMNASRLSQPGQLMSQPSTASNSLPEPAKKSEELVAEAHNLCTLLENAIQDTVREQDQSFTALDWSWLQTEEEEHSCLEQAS

NF-κB = NF-κB activation / DNA-binding activity by EMSA in stimulated HeLa cells; format: cell-based, human; conditions: HeLa cells stimulated with TNFα (PGA1: IL-1 or TNFα)
Description: as §1
Aliquots of total extracts (15 μg protein) in buffer B were incubated with a ^32P-labeled κB DNA, followed by analysis of DNA-binding activities by EMSA on 4% PAGE gels, as known in the art (See, Rossi et al., supra). Specificity of protein-DNA complexes was verified by supershift with polyclonal antibodies specific for p65 (Rel A).

effect on IKK activity in vivo (cells), FIG. 5A (IKK [1])	effect on IKK activity in vitro, FIG. 5B (IKK [2])	Structure (SMILES)	inhibition of IKKβ (IKKβ)	effect on NF-κB activation (NF-κB)
ineffective	ineffective	CCCCC/C=C\C/C=C\C/C=C\C/C=C\CCCC(=O)O [Arachidonic acid, arachidonic acid]		
ineffective	ineffective	CCCCC[C@H](O)/C=C/C1=C(C/C=C\CCCC(=O)O)C(=O)CC1 [PGB2]		
ineffective	ineffective	CCCCC[C@H](O)/C=C/[C@H]1C(=O)C[C@H](O)[C@@H]1C/C=C\CCCC(=O)O [PGD2]		
ineffective	ineffective	CCCCC[C@H](O)/C=C/[C@H]1[C@H](O)CC(=O)[C@@H]1CCCCCCC(=O)O [PGE1]		
ineffective	ineffective	CCCCC[C@H](O)/C=C/[C@H]1[C@H](O)CC(=O)[C@@H]1C/C=C\CCCC(=O)O [PGE2]		
ineffective	ineffective	CCCCC[C@H](O)/C=C/[C@@H]1[C@@H](CCCCCCC(=O)O)[C@@H](O)C[C@H]1O [PGF1α]		
		CC(=O)Oc1ccccc1C(=O)O [aspirin]	inhibited	
ineffective	ineffective	CCCCC/C=C\C[C@@H](O)/C=C/C=C/C=C\[C@@H](O)CCCC(=O)O [leukotriene B4]		
ineffective	ineffective	CCCCC[C@H](O)/C=C/[C@H]1OC(O)C[C@H](O)[C@@H]1C/C=C\CCCC(=O)O (stereo partly drawn) [thromboxane B2]		
		Cc1c(C)c2c(c(C)c1O)CCC(C)(COc1ccc(CC3SC(=O)NC3=O)cc1)O2 (stereo not drawn) [troglitazone, reference compound]		does not inhibit
